Test: Adverse events
Assay type: in vivo, human
Conditions: for Abdominal pain grade 3, number of patients / Anaemia grade 3, number of patients / Fatigue grade 3, number of patients / Neutropenia grade 3, number of patients / Thrombocytopenia grade 3, number of patients / Upper GI haemorrhage grade 3, number of patients / Anaemia grade 4, number of patients / Hypokalaemia grade 3, number of patients / Ileus grade 3, number of patients / Leukopenia grade 4, number of patients / Neutropenia grade 4, number of patients / Thrombocytopenia grade 4, number of patients / Febrile neutropenia grade 3, number of patients / Febrile neutropenia grade 4, number of patients / Infection grade 3, number of patients / Leukopenia grade 3, number of patients / Pain grade 3, number of patients / Dyspnoea grade 3, number of patients / Dizziness grade 3, number of patients / Rash grade 3, number of patients / Vomiting grade 3, number of patients / Abdominal distension grade 3, number of patients / Decreased appetite grade 3, number of patients: irrespective of relatedness; for drug-related anaemia, incidence / drug-related leukopenia, incidence / drug-related neutropenia, incidence / drug-related thrombocytopenia, incidence: all doses

## CC[C@@H]1C(=O)N(C)c2cnc(Nc3ccc(C(=O)N[C@H]4CC[C@H](N5CCN(CC6CC6)CC5)CC4)cc3OC)nc2N1C(C)C [volasertib]
All due to underlying cancer, none considered related to volasertib
  deaths during the study: three deaths
Schedule A, 100 mg (n=3)
  Abdominal pain grade 3, number of patients: 1 n
  Anaemia grade 3, number of patients: 1 n
  Fatigue grade 3, number of patients: 1 n
  Neutropenia grade 3, number of patients: 1 n
  Thrombocytopenia grade 3, number of patients: 1 n
  Upper GI haemorrhage grade 3, number of patients: 1 n
Schedule A, 250 mg (n=6)
  Anaemia grade 3, number of patients: 3 n
  Anaemia grade 4, number of patients: 1 n
  Hypokalaemia grade 3, number of patients: 1 n
  Ileus grade 3, number of patients: 1 n
  Leukopenia grade 4, number of patients: 1 n
  Neutropenia grade 4, number of patients: 2 n
  Thrombocytopenia grade 3, number of patients: 1 n
  Thrombocytopenia grade 4, number of patients: 1 n
Schedule A, 300 mg (n=17)
  Abdominal pain grade 3, number of patients: 2 n
  Anaemia grade 3, number of patients: 2 n
  Anaemia grade 4, number of patients: 2 n
  Fatigue grade 3, number of patients: 1 n
  Febrile neutropenia grade 3, number of patients: 1 n
  Febrile neutropenia grade 4, number of patients: 1 n
  Infection grade 3, number of patients: 1 n
  Leukopenia grade 3, number of patients: 7 n
  Neutropenia grade 3, number of patients: 5 n
  Neutropenia grade 4, number of patients: 5 n
  Pain grade 3, number of patients: 1 n
  Thrombocytopenia grade 3, number of patients: 7 n
  Thrombocytopenia grade 4, number of patients: 2 n
Schedule A, 350 mg (n=3)
  Anaemia grade 3, number of patients: 2 n
  Anaemia grade 4, number of patients: 1 n
  Febrile neutropenia grade 3, number of patients: 1 n
  Leukopenia grade 3, number of patients: 2 n
  Neutropenia grade 4, number of patients: 3 n
  Thrombocytopenia grade 3, number of patients: 1 n
  Thrombocytopenia grade 4, number of patients: 2 n
Schedule A
  drug-related anaemia, incidence: 40.6%
  drug-related leukopenia, incidence: 56.3%
  drug-related neutropenia, incidence: 56.3%
  drug-related thrombocytopenia, incidence: 62.5%
Schedule A, total (n=32)
  Abdominal pain grade 3, number of patients: 3 (9.4) n (%)
  Anaemia grade 3, number of patients: 8 (25.0) n (%)
  Anaemia grade 4, number of patients: 4 (12.5) n (%)
  Fatigue grade 3, number of patients: 2 (6.3) n (%)
  Febrile neutropenia grade 3, number of patients: 2 (6.3) n (%)
  Febrile neutropenia grade 4, number of patients: 1 (3.1) n (%)
  Hypokalaemia grade 3, number of patients: 1 (3.1) n (%)
  Ileus grade 3, number of patients: 1 (3.1) n (%)
  Infection grade 3, number of patients: 1 (3.1) n (%)
  Leukopenia grade 3, number of patients: 9 (28.1) n (%)
  Leukopenia grade 4, number of patients: 1 (3.1) n (%)
  Neutropenia grade 3, number of patients: 6 (18.8) n (%)
  Neutropenia grade 4, number of patients: 10 (31.3) n (%)
  Pain grade 3, number of patients: 1 (3.1) n (%)
  Thrombocytopenia grade 3, number of patients: 10 (31.3) n (%)
  Thrombocytopenia grade 4, number of patients: 5 (15.6) n (%)
  Upper GI haemorrhage grade 3, number of patients: 1 (3.1) n (%)
Schedule B, 50 mg (n=4)
  Anaemia grade 3, number of patients: 1 n
  Infection grade 3, number of patients: 1 n
Schedule B, 100 mg (n=4)
  Dyspnoea grade 3, number of patients: 1 n
  Hypokalaemia grade 3, number of patients: 1 n
Schedule B, 150 mg (n=16)
  Abdominal pain grade 3, number of patients: 2 n
  Anaemia grade 3, number of patients: 1 n
  Anaemia grade 4, number of patients: 2 n
  Dizziness grade 3, number of patients: 1 n
  Fatigue grade 3, number of patients: 1 n
  Leukopenia grade 3, number of patients: 1 n
  Neutropenia grade 3, number of patients: 2 n
  Neutropenia grade 4, number of patients: 1 n
  Pain grade 3, number of patients: 2 n
  Rash grade 3, number of patients: 1 n
  Upper GI haemorrhage grade 3, number of patients: 1 n
  Vomiting grade 3, number of patients: 1 n
Schedule B, 200 mg (n=3)
  Abdominal distension grade 3, number of patients: 1 n
  Anaemia grade 3, number of patients: 2 n
  Decreased appetite grade 3, number of patients: 1 n
  Fatigue grade 3, number of patients: 1 n
  Febrile neutropenia grade 3, number of patients: 1 n
  Hypokalaemia grade 3, number of patients: 1 n
  Ileus grade 3, number of patients: 2 n
  Infection grade 3, number of patients: 1 n
  Leukopenia grade 4, number of patients: 1 n
  Neutropenia grade 4, number of patients: 2 n
  Thrombocytopenia grade 3, number of patients: 2 n
  Upper GI haemorrhage grade 3, number of patients: 1 n
Schedule B
  drug-related anaemia, incidence: 18.5%
  drug-related leukopenia, incidence: 33.3%
  drug-related neutropenia, incidence: 33.3%
  drug-related thrombocytopenia, incidence: 14.8%
Schedule B, total (n=27)
  Abdominal distension grade 3, number of patients: 1 (3.7) n (%)
  Abdominal pain grade 3, number of patients: 2 (7.4) n (%)
  Anaemia grade 3, number of patients: 4 (14.8) n (%)
  Anaemia grade 4, number of patients: 2 (7.4) n (%)
  Decreased appetite grade 3, number of patients: 1 (3.7) n (%)
  Dizziness grade 3, number of patients: 1 (3.7) n (%)
  Dyspnoea grade 3, number of patients: 1 (3.7) n (%)
  Fatigue grade 3, number of patients: 2 (7.4) n (%)
  Febrile neutropenia grade 3, number of patients: 1 (3.7) n (%)
  Hypokalaemia grade 3, number of patients: 2 (7.4) n (%)
  Ileus grade 3, number of patients: 2 (7.4) n (%)
  Infection grade 3, number of patients: 2 (7.4) n (%)
  Leukopenia grade 3, number of patients: 1 (3.7) n (%)
  Leukopenia grade 4, number of patients: 1 (3.7) n (%)
  Neutropenia grade 3, number of patients: 2 (7.4) n (%)
  Neutropenia grade 4, number of patients: 3 (11.1) n (%)
  Pain grade 3, number of patients: 2 (7.4) n (%)
  Rash grade 3, number of patients: 1 (3.7) n (%)
  Thrombocytopenia grade 3, number of patients: 2 (7.4) n (%)
  Upper GI haemorrhage grade 3, number of patients: 2 (7.4) n (%)
  Vomiting grade 3, number of patients: 1 (3.7) n (%)

— PMC4021529 (British Journal of Cancer, 2014)
